Laboratory results as given in the supplement of paper PMC4862054.

Tests used:
Settings in all cases: incubation time: 72 h
MDA-MB-468 [1] = assay: normalised response (% of control), CellTox Green; higher = less cell death (100 = DMSO, 0 = benzethonium chloride kill control)
How it was run: (§1)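 Breast cancer cell lines (20 µl suspension) were seeded into 384-well plates holding compound at 5 concentrations in 10-fold steps over a compound-specific 10,000-fold range, then incubated 72 h. CellTox Green fluorescence (485/520 nm) was read first, then CellTiter-Glo luminescence after 10 min at room temperature. Each plate was normalised to 0.1 % DMSO (100) and a positive kill control (0). Each value is the normalised signal at a single concentration of the series.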

MCF-10A [2] = assay: as above
How it was run: as §1

DU-4475 [3] = assay: as above
How it was run: as §1

CAL-120 [4] = assay: as above
How it was run: as §1

CAL-85-1 [5] = assay: as above
How it was run: as §1

MDA-MB-436 [6] = assay: as above
How it was run: as §1

CAL-51 [7] = assay: as above
How it was run: as §1

CAL-148 [8] = assay: as above
How it was run: as §1

HCC1143 [9] = assay: as above
How it was run: as §1

HDQ-P1 [10] = assay: as above
How it was run: as §1

HCC1599 [11] = assay: as above
How it was run: as §1

HCC1937 [12] = assay: as above
How it was run: as §1

MDA-MB-231 [13] = assay: as above
How it was run: as §1

Hs578T [14] = assay: as above
How it was run: as §1

BT-474 [15] = assay: as above
How it was run: as §1

BT-549 [16] = assay: as above
How it was run: as §1

MDA-MB-453 [17] = assay: as above
How it was run: as §1

MFM-223 [18] = assay: as above
How it was run: as §1

MDA-MB-468 [19] = assay: normalised response (% of control), CellTiter-Glo; higher = more viable cells (100 = DMSO, 0 = benzethonium chloride kill control)
Method: (§2)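 DSRT, 72 h incubation, CellTox Green / CellTiter-Glo readout. Signal is normalised to DMSO and benzethonium chloride controls. Value is the normalised response at the highest dose.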

MCF-10A [20] = assay: as above
Method: as §2

DU-4475 [21] = assay: as above
Method: as §2

CAL-120 [22] = assay: as above
Method: as §2

CAL-85-1 [23] = assay: as above
Method: as §2

MDA-MB-436 [24] = assay: as above
Method: as §2

CAL-51 [25] = assay: as above
Method: as §2

CAL-148 [26] = assay: as above
Method: as §2

HCC1143 [27] = assay: as above
Method: as §2

HDQ-P1 [28] = assay: as above
Method: as §2

SK-BR-3 = assay: as above
Method: as §2

HCC1599 [29] = assay: as above
Method: as §2

HCC1937 [30] = assay: as above
Method: as §2

MDA-MB-231 [31] = assay: as above
Method: as §2

Hs578T [32] = assay: as above
Method: as §2

BT-474 [33] = assay: as above
Method: as §2

BT-549 [34] = assay: as above
Method: as §2

MDA-MB-453 [35] = assay: as above
Method: as §2

MFM-223 [36] = assay: as above
Method: as §2

| Compound | normalised response (MDA-MB-468 [1]) | normalised response (MCF-10A [2]) | normalised response (DU-4475 [3]) | normalised response (CAL-120 [4]) | normalised response (CAL-85-1 [5]) | normalised response (MDA-MB-436 [6]) | normalised response (CAL-51 [7]) | normalised response (CAL-148 [8]) | normalised response (HCC1143 [9]) | normalised response (HDQ-P1 [10]) | normalised response (HCC1599 [11]) | normalised response (HCC1937 [12]) | normalised response (MDA-MB-231 [13]) | normalised response (Hs578T [14]) | normalised response (BT-474 [15]) | normalised response (BT-549 [16]) | normalised response (MDA-MB-453 [17]) | normalised response (MFM-223 [18]) | normalised response (MDA-MB-468 [19]) | normalised response (MCF-10A [20]) | normalised response (DU-4475 [21]) | normalised response (CAL-120 [22]) | normalised response (CAL-85-1 [23]) | normalised response (MDA-MB-436 [24]) | normalised response (CAL-51 [25]) | normalised response (CAL-148 [26]) | normalised response (HCC1143 [27]) | normalised response (HDQ-P1 [28]) | normalised response (SK-BR-3) | normalised response (HCC1599 [29]) | normalised response (HCC1937 [30]) | normalised response (MDA-MB-231 [31]) | normalised response (Hs578T [32]) | normalised response (BT-474 [33]) | normalised response (BT-549 [34]) | normalised response (MDA-MB-453 [35]) | normalised response (MFM-223 [36]) |
| --- | --- | --- | --- | --- | --- | --- | --- | --- | --- | --- | --- | --- | --- | --- | --- | --- | --- | --- | --- | --- | --- | --- | --- | --- | --- | --- | --- | --- | --- | --- | --- | --- | --- | --- | --- | --- | --- |
| CN1CCc2c(c3ccccc3n2Cc2ccc(C(=O)NO)cc2)C1 [Tubastatin A] (10000 nM) | 41.7% | 99.6% | 93.7% | 99.3% | 80.3% | 79.8% | -14.9% | 80.1% | 55.3% | 106% | 90.1% | 61.3% | 49.3% | 122% | 86.9% | 87.1% | 91.3% | 84.2% | 66.4% | 98.5% | 79.9% | 84.1% | 72.5% | 72.3% | 39.3% | 77.3% | 47.1% | 73.3% | 42.2% | 85.3% | 70.1% | 72% | 87.9% | 75.4% | 75% | 57.4% | 87% |
| N[C@@H](Cc1ccc(N(CCCl)CCCl)cc1)C(=O)O [Melphalan] (12500 nM) | -317% | -119% | -7.06% | -41.5% | -78.3% | -19.3% | -37.5% | -8.15% | -23.3% | -14.5% | 18.8% | -39.4% | -127% | -177% | -70.3% | -143% | -17.4% | -19.4% | 0.28% | 0.08% | 0.09% | 3.52% | 0.13% | 0.88% | 0.13% | 1.23% | 0.96% | 0.84% | -0.14% | 0.01% | 3.24% | 0.1% | -0.1% | 2.03% | 0.03% | 0.28% | 0.21% |
| CC(C)n1nc(-c2ccc3oc(N)nc3c2)c2c(N)ncnc21 [INK128] (1000 nM) | 153% | 92% | 86.9% | 97.3% | 115% | 91.4% | 85.2% | 42% | 113% | 98.4% | 99.4% | 103% | 87.6% | -29.1% | 93.8% | 93.2% | 97.1% | 28.3% | 18.7% | 25.1% | 18.4% | 18.5% | 24.2% | 45.8% | 20.9% | 16.1% | 22.1% | 29.6% | 17.4% | 79.2% | 37% | 33.9% | 24.5% | 41.1% | 19.5% | 30% | 26.5% |
| CCc1c(C(=O)C(N)=O)c2c(OCC(=O)O)cccc2n1Cc1ccccc1 [Varespladib] (10000 nM) | 109% | 110% | 97.5% | 104% | 93.6% | 105% | 108% | 98.3% | 103% | 97.1% | 102% | 72.7% | 102% | 121% | 99.6% | 103% | 101% | 90% | 97.7% | 100% | 91.3% | 115% | 104% | 101% | 97.3% | 109% | 101% | 98.8% | 103% | 95.1% | 96.7% | 95.7% | 99.3% | 99.2% | 99.8% | 102% | 105% |
